Measurements reported in patent US5747466A, “3-deoxy-3-descladinose derivatives of erythromycins A and B” (Abbott Laboratories, priority 1996, dated 1998).
Where two headings read alike, the source gives them in different places.

Legend:
Experiment in all cases: In vitro antibacterial activity (MIC), agar dilution
Type in all cases: cell-based
[1] = test system: STAPHYLOCOCCUS AUREUS A5177; details: S. aureus A5177; BHI agar, 35-37 °C, 20-24 h
[2] = test system: STAPHYLOCOCCUS AUREUS A-5278; details: S. aureus A-5278; BHI agar, 35-37 °C, 20-24 h
[3] = test system: STREPTOCOCCUS PYOGENES 930; details: S. pyogenes 930; BHI agar, 35-37 °C, 20-24 h
[4] = test system: STREPTOCOCCUS PYOGENES PIU 2548; details: S. pyogenes PIU 2548; BHI agar, 35-37 °C, 20-24 h
[5] = test system: ESCHERICHIA COLI JUHL
[6] = test system: KLEBSIELLA PNEUMONIAE ATCC 8045; details: K. pneumoniae ATCC 8045; BHI agar, 35-37 °C, 20-24 h
[7] = test system: PSEUDOMONAS AERUGINOSA K799/61; details: P. aeruginosa K799/61; BHI agar, 35-37 °C, 20-24 h
[8] = test system: CANDIDA ALBICANS CCH 442; details: C. albicans CCH 442; BHI agar, 35-37 °C, 20-24 h
[9] = test system: ACINETOBACTER CALCOACETICUS CMX 669; details: A. calcoaceticus CMX 669; BHI agar, 35-37 °C, 20-24 h
[10] = E. coli JUHL, BHI agar, 35-37 °C, 20-24 h

Compound	minimum inhibitory concentration (MIC) [1]	minimum inhibitory concentration (MIC) [2]	minimum inhibitory concentration (MIC) [3]	minimum inhibitory concentration (MIC) [4]	minimum inhibitory concentration (MIC) [5]	minimum inhibitory concentration (MIC) [6]	minimum inhibitory concentration (MIC) [7]	minimum inhibitory concentration (MIC) [8]	minimum inhibitory concentration (MIC) [5, 10]	minimum inhibitory concentration (MIC) [9]
CC[C@H]1OC(=O)[C@H](C)[C@@H](O[C@H]2C[C@@](C)(OC)[C@@H](O)[C@H](C)O2)[C@H](C)[C@@H](O[C@@H]2O[C@H](C)C[C@H](N(C)C)[C@H]2O)[C@](C)(O)C[C@@H](C)C(=O)[C@H](C)[C@@H](O)[C@]1(C)O [Ery A, Erythromycin A, reference compound]	1.56	> 100	> 100	6.2	50	25	1.56	> 100		
CC[C@H]1OC(=O)[C@H](C)C[C@H](C)[C@@H](O[C@@H]2O[C@H](C)C[C@H](N(C)C)[C@H]2O)[C@](C)(OC)C[C@@H](C)C(=O)[C@H](C)[C@@H](O)[C@]1(C)O [Ex. 1]	25	> 100	> 100	3.1		> 100	> 100	> 100	> 100	> 100
CC[C@H]1OC(=O)[C@H](C)C[C@H](C)[C@@H](O[C@@H]2O[C@H](C)C[C@H](N(C)C)[C@H]2O)[C@](C)(OC)C[C@@H](C)C(=NO)[C@H](C)[C@@H](O)[C@]1(C)O [Ex. 2]	25	> 100	> 100	0.56		> 100	> 100	> 100	> 100	> 100
CC[C@H]1OC(=O)[C@H](C)C[C@H](C)[C@@H](O[C@@H]2O[C@H](C)C[C@H](N(C)C)[C@H]2O)[C@](C)(OC)C[C@@H](C)C(=O)[C@H](C)[C@H]2OC(=O)O[C@@]21C [Ex. 3]	3.1	> 100	> 100	0.78		> 100	> 100	> 100	> 100	> 100
CC[C@H]1OC(=O)[C@H](C)C[C@H](C)[C@@H](O[C@@H]2O[C@H](C)C[C@H](N(C)C)[C@H]2O)[C@](C)(OC)C[C@@H](C)C(=O)[C@H](C)[C@H]2N(CCCCc3ccccc3)C(=O)O[C@]12C [Ex. 4]	1.56	50	6.2	0.2		> 100	12.5	100	> 100	100
CC[C@H]1OC(=O)[C@H](C)C[C@H](C)[C@@H](O[C@@H]2O[C@H](C)C[C@H](N(C)C)[C@H]2O)[C@](C)(OC)C[C@@H](C)C(=O)[C@H](C)[C@H]2N(CCc3ccc(Oc4ccccc4)cc3)C(=O)O[C@]12C [Ex. 5]	6.2	25	6.2	3.1		> 100	> 100	100		> 100
CC[C@H]1OC(=O)[C@H](C)C[C@H](C)[C@@H](O[C@@H]2O[C@H](C)C[C@H](N(C)C)[C@H]2O)[C@](C)(OC)C[C@@H](C)C(=NOC)[C@H](C)[C@@H](O)[C@]1(C)O [Ex. 6]	6.2	> 100	> 100	0.78		> 100	> 100	> 100		> 100
CC[C@H]1OC(=O)[C@H](C)C[C@H](C)[C@@H](O[C@@H]2O[C@H](C)C[C@H](N(C)C)[C@H]2O)[C@](C)(OC)C[C@@H](C)C(=NOCOCCOC)[C@H](C)[C@@H](O)[C@]1(C)O [Ex. 8]	1.56	> 100	> 100	6.2		25	1.56	> 100	50	12.5
